Assay results taken from ChEMBL document CHEMBL4138307, “Click-Addressable Cassette for Photoaffinity Labeling” (ACS Med Chem Lett, 2018).
The source made the active and inactive calls. The calls are words filed in the database; no cut-off is given here.

Experiments:
[1] = target: NT-3 growth factor receptor (Homo sapiens) (UniProt Q16288); test: Binding affinity to recombinant TrkC (unknown origin) at 10 to 25 uM preincubated for 1 hr in dark followed by irradiation with LED UV flashlight at 365 nm for 30 mins in presence of 80 fold excess of (2S,2'S)-1,1'-((6-(4-(benzyl(prop-2-yn-1-yl)amino)piperidin-1-yl)-1,3,5-triazine-2,4-diyl)bis(piperazine-4,1-diyl))bis(2-(4-((1S,2S)-1-amino-2-methylbutyl)-1H-1,2,3-triazol-1-yl)-3-(4-hydroxyphenyl)propan-1-one) by SDS-PAGE based fluorescence imaging
[2] = target: NT-3 growth factor receptor (Homo sapiens) (UniProt Q16288); test: Binding affinity to recombinant TrkC (unknown origin) at 10 to 25 uM incubated for 1 hr in dark in presence of azide fluor 488 staining by SDS-PAGE based fluorescence imaging
[3] = target: NT-3 growth factor receptor (Homo sapiens) (UniProt Q16288); test: Binding affinity to recombinant TrkC (unknown origin) at 10 to 25 uM preincubated for 1 hr in dark followed by irradiation with LED UV flashlight at 365 nm for 30 mins in presence of azide fluor 488 staining by SDS-PAGE based fluorescence imaging
[4] = target: NT-3 growth factor receptor (Homo sapiens) (UniProt Q16288); test: Binding affinity to TrkC (unknown origin) expressed in mouse NIH3T3 cell lysate at 10 uM preincubated for 3 hrs in dark followed by irradiation with LED UV flashlight at 365 nm for 30 mins by biotin-azide/neutravidin agarose gel based Western blot analysis
[5] = target: Carbonic anhydrase 9 (Homo sapiens) (UniProt Q16790); test: Binding affinity to recombinant carbonic anhydrase 9 (unknown origin) at 5 to 10 uM preincubated for 2 hrs in dark followed by irradiation with LED UV flashlight at 365 nm for 30 mins in presence of 50 fold excess of 4-(2-((4-(4-(benzyl(prop-2-yn-1-yl)amino)piperidin-1-yl)-6-chloro-1,3,5-triazin-2-yl)amino)ethyl)benzenesulfonamide by SDS-PAGE based fluorescence imaging
[6] = target: Carbonic anhydrase 9 (Homo sapiens) (UniProt Q16790); test: Binding affinity to recombinant carbonic anhydrase 9 (unknown origin) at 5 to 10 uM preincubated for 2 hrs in dark followed by irradiation with LED UV flashlight at 365 nm for 30 mins in presence of coomassie brilliant blue G250 staining by SDS-PAGE based fluorescence imaging
[7] = target: Carbonic anhydrase 9 (Homo sapiens) (UniProt Q16790); test: Binding affinity to carbonic anhydrase 9 in human MDA-MB-231 cell lysate at 5 uM preincubated for 3 hrs in dark followed by irradiation with LED UV flashlight at 365 nm for 30 mins in presence of 4-(2-((4-(4-(benzyl(prop-2-yn-1-yl)amino)piperidin-1-yl)-6-chloro-1,3,5-triazin-2-yl)amino)ethyl)benzenesulfonamide by biotin-azide/neutravidin agarose gel based Western blot analysis
[8] = target: Carbonic anhydrase 9 (Homo sapiens) (UniProt Q16790); test: Binding affinity to carbonic anhydrase 9 in human MDA-MB-231 cell lysate at 5 uM preincubated for 3 hrs in dark followed by irradiation with LED UV flashlight at 365 nm for 30 mins by biotin-azide/neutravidin agarose gel based Western blot analysis
[9] = target: Carbonic anhydrase 9 (Homo sapiens) (UniProt Q16790); test: Binding affinity to recombinant carbonic anhydrase 9 (unknown origin) at 5 to 10 uM preincubated for 2 hrs in dark followed by irradiation with LED UV flashlight at 365 nm for 30 mins in presence of azide fluor 488 staining by SDS-PAGE based fluorescence imaging

Chain of NT-3 growth factor receptor (Homo sapiens) (Q16288 32-839 limits assumed): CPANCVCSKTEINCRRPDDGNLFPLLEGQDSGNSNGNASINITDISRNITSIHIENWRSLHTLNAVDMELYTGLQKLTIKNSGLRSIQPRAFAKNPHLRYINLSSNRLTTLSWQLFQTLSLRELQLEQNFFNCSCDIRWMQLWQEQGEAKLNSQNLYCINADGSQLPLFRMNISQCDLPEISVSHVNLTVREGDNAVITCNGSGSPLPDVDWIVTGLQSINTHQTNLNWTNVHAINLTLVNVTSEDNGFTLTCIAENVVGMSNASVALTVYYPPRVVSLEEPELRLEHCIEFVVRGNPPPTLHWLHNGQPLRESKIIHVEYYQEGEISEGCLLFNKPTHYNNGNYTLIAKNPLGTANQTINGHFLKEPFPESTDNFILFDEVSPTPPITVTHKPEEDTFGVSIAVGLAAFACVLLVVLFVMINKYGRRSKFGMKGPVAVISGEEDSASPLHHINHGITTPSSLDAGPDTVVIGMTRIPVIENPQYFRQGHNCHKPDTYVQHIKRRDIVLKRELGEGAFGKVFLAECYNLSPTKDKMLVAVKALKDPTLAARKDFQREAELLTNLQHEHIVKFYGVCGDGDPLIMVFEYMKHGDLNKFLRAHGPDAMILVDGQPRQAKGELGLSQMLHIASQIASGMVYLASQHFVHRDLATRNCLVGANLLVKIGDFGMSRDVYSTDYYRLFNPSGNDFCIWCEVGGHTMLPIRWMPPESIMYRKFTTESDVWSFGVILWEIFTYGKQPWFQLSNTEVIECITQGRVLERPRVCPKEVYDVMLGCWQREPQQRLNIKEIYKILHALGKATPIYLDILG

Row | Activity [1] | Activity [2] | Activity [3] | Activity [4] | Activity [5] | Activity [6] | Activity [7] | Activity [8] | Activity [9] | Compound
1 | inactive | inactive | Active | Active | – | – | – | – | – | C#CCN(Cc1ccc(C2(C(F)(F)F)N=N2)cc1)C1CCN(c2nc(N3CCN(C(=O)[C@H](Cc4ccc(O)cc4)n4cc([C@@H](N)[C@@H](C)CC)nn4)CC3)nc(N3CCN(C(=O)[C@H](Cc4ccc(O)cc4)n4cc([C@@H](N)[C@@H](C)CC)nn4)CC3)n2)CC1
2 | – | – | – | – | inactive | Active | inactive | Active | Active | C#CCN(Cc1ccc(C2(C(F)(F)F)N=N2)cc1)C1CCN(c2nc(Cl)nc(NCCc3ccc(S(N)(=O)=O)cc3)n2)CC1
